Source: patent US8519188B2, “Compounds which can be used for the treatment of cancers” (Marc-Henry Pitty, priority 2008, dated 2013)

Assays:
[1] = tested on: MCF-7 breast cancer cell line; assay: Cell proliferation (CellTiter 96 AQueous MTS/PMS), MCF-7; assay type: cell-based; settings: Homo sapiens, MCF7; MCF-7; 72 hours of incubation; concentration that induces the death of 50% of the cells; read-out: CI50 for various cell lines (nM) MCF-7
Experimental: (§1) The effects of the compounds of the invention on the proliferation of cancer cells were studied on various human cancer cell lines of various tissue origins (MCF-7: breast cancer, MCF-7/adr adriamycin-resistant breast cancer, ARH-77: myeloma, ARH-77/Dox: doxorubicin (other name for adriamycin)-resistant myeloma, HL-60: acute promyelocytic leukaemia, HL-60/R10: doxorubicin-resistant acute promyelocytic leukaemia). The cancer cells used for this study were incubated at 37° C. in the presence of one of the compounds of the invention added to the culture medium at various concentrations.
(§2) The cancer cell lines originate from the ATCC (American Type Culture Collection) in the case of MCF-7, ARH-77 and HL-60, from Pharmacell (Paris, France) for HL-60/R10, from Oncodesign (Dijon, France) for ARH-77/Dox and from the Pitié Salpetrière Hospital for MCF-7/adr. They were cultivated in a RPMI 1640 medium containing 2 mM L-glutamine and supplemented with 10% foetal calf serum. All the cell lines were maintained in culture at 37° C. in a moist atmosphere containing 5% CO2. Cell proliferation was evaluated using the “CellTiter 96® AQueous” reagent (Promega, Wis., USA) while adhering to the manufacturer's instructions. The cells were seeded in 96-well culture plates in a proportion of from 5,000 to 10,000 cells per well in 200 μl of culture medium. After 24 hours of preincubation at 37° C., the compounds of the invention dissolved in dimethyl sulphoxide (DMSO) were added individually to each of the wells in a proportion of 2 μl per well. After 72 hours of incubation at 37° C. in a moist atmosphere containing 5% CO2, 40 μL of a MTS/PMS ([3-(4,5-dimethylthiazol-2-yl)-5-(3-carboxymethoxyphenyl)-2-(4-sulphophenyl)-2H-tetrazolium phenazine methosulphate) solution were added to each well.

[2] = tested on: MCF-7/adr adriamycin-resistant breast cancer cell line; assay: Cell proliferation (CellTiter 96 AQueous MTS/PMS), MCF-7/adr; assay type: cell-based; settings: Homo sapiens, NCI/ADR-RES; MCF-7/adr; 72 hours of incubation; concentration that induces the death of 50% of the cells; read-out: CI50 for various cell lines (nM) MCF-7/adr
Experimental: as §1, §2

Structure (SMILES)	IC50 [1] [nM]	IC50 [2] [nM]
C#CC(=O)N(c1ccccc1C#N)C(C(=O)NC1CCCCC1)c1cccs1 (centres unmarked) [Compound 54, Propynoic Acid (2-cyanophenyl)(cyclohexylcarbamoylthiophen-2-yl-methyl)amide]	224	2.9
COc1ccc(N(C(=O)CCl)C(C(=O)NC2CCCCC2)c2cccs2)cc1 (centres unmarked) [Compound 109, 2-[(2-Chloroacetyl)-(4-methoxyphenyl)amino]-N-cyclohexyl-2-thiophen-2-yl-acetamide]	100	1
C#CC(=O)N(c1ccc(C#N)cc1)C(C(=O)NC1CCCCC1)c1cccs1 (centres unmarked) [Compound 53, Propynoic Acid (4-cyanophenyl)(cyclohexylcarbamoylthiophen-2-yl-methyl)amide]	372	2.8
C#CC(=O)N(c1cccc(C(F)(F)F)c1)C(C(=O)NC1CCCCC1)c1cccc(C)c1 (centres unmarked) [Compound 94, Propynoic Acid (cyclohexylcarbamoyl-m-tolylmethyl)-(3-trifluoromethylphenyl)amide]	599	2
C#CC(=O)N(c1cccc(C(F)(F)F)c1)C(C(=O)NC1CCCCC1)c1cccc2c1OCO2 (centres unmarked) [Compound 84, Propynoic Acid (benzo[1,3]dioxol-4-yl-cyclohexylcarbamoylmethyl)-(3-trifluoromethyl-phenyl)amide]	250	1.6
O=C(NC1CCCCC1)C(c1cccs1)N(C(=O)CCl)c1ccc(C(F)(F)F)cc1 (centres unmarked) [Compound 129, 2-[(2-Chloroacetyl)-(4-trifluoromethylphenyl)amino]-N-cyclohexyl-2-thiophen-2-yl-acetamide]	77	3.6
O=C(NC1CCCCC1)C(c1cccs1)N(C(=O)CCl)c1cccc2ccccc12 (centres unmarked) [Compound 134, 2-[(2-Chloroacetyl)naphthalen-1-yl-amino]-N-cyclohexyl-2-thiophen-2-yl-acetamide]	> 1000	74
COC(=O)c1ccc(NC(=O)C(c2cccs2)N(C(=O)CCl)c2cccc(C(F)(F)F)c2)cc1 (centres unmarked) [Compound 154]	88	3.5
O=C(NC1CCCCC1)C(c1cccs1)N(C(=O)CCl)c1cccc(C(F)(F)F)c1 (centres unmarked) [Compound 110, 2-[(2-Chloroacetyl)-(3-trifluoromethylphenyl)amino]-N-cyclo hexyl-2-thiophen-2-yl-acetamide]	70	1
CN1CCN(CCCOc2ccc(C(C(=O)NC3CCCCC3)N(C(=O)CCl)c3cccc(C(C)(C)C)c3)cc2)CC1 (centres unmarked) [Compound 189, 2-[(3-tert-Butyl-phenyl)-(2-chloro-acetyl)-amino]-N-cyclohexyl-2-[4-[3-(4-methyl-piperazin-1-yl)-propoxy]-phenyl]-acetamide]	360	72
C#CC(=O)N(c1ccccc1Cl)C(C(=O)NC1CCCCC1)c1cccs1 (centres unmarked) [Compound 33, Propynoic Acid (2-chlorophenyl)(cyclohexylcarbamoylthiophen-2-yl-methyl)amide]	736	2.7
O=C(NC1CCCCC1)C(c1cccs1)N(C(=O)CBr)c1cccc(C(F)(F)F)c1 (centres unmarked) [Compound 107, 2-[(2-Bromoacetyl)-(3-trifluoromethylphenyl)amino]-N-cyclohexyl-2-thiophen-2-yl-acetamide]	267	0.5
C#CC(=O)N(c1cccc(C(F)(F)F)c1)C(C(=O)NC1CCCCC1)c1cccc(Oc2ccccc2)c1 (centres unmarked) [Compound 90, Propynoic Acid [cyclohexylcarbamoyl-(3-phenoxyphenyl)methyl]-(3-trifluoromethylphenyl)amide]	820	2.2
CN(C)c1ccc(C(C(=O)NC2CCCCC2)N(C(=O)CCl)c2cccc(C(F)(F)F)c2)cc1 (centres unmarked) [Compound 147]	92	1.1
C#CC(=O)N(c1ccc(F)cc1F)C(C(=O)NC1CCCCC1)c1cccs1 (centres unmarked) [Compound 50, Propynoic Acid (cyclohexylcarbamoylthiophen-2-yl-methyl)-(2,4-difluorophenyl)amide]	282	2
CCN(CC)c1ccc(N(C(=O)CCl)C(C(=O)NC2CCCCC2)c2cccs2)cc1 (centres unmarked) [Compound 127, 2-[(2-Chloroacetyl)-(4-diethylaminophenyl)amino]-N-cyclohexyl-2-thiophen-2-yl-acetamide]	77	7.5

Structure (SMILES)	IC50 [1] [nM]	IC50 [2] [nM]
C#CC(=O)N(c1cccc(C(F)(F)F)c1)C(C(=O)NC1CCCCC1)c1ccc2c(c1)OCO2 (centres unmarked) [Compound 63, Propynoic Acid (benzo[1,3]dioxol-5-yl-cyclohexylcarbamoylmethyl)-(3-trifluoromethylphenyl)amide]	401	2
COc1ccccc1N(C(=O)CCl)C(C(=O)NC1CCCCC1)c1cccs1 (centres unmarked) [Compound 124, 2-[(2-Chloroacetyl)-(2-methoxyphenyl)amino]-N-cyclohexyl-2-thiophen-2-yl-acetamide]	> 2000	27
C#CC(=O)N(c1cccc(C(F)(F)F)c1)C(C(=O)NC1CCCCC1)c1ccc(F)cc1 (centres unmarked) [Compound 74, Propynoic Acid [cyclohexylcarbamoyl-(4-fluorophenyl)methyl]-(3-trifluoromethylphenyl)amide]	506	2.9
CN(C(=O)N1CCN(C(=O)C(c2cccs2)N(C(=O)CCl)c2cccc(C(F)(F)F)c2)CC1)c1ccccc1 (centres unmarked) [Compound 204, 4-{2-[(2-Chloroacetyl)-(3-trifluoromethylphenyl)-amino]-2-thiophen-2-yl-acetyl}piperazine-1-carboxylic acid methylphenyl-amide]	741	89
N#Cc1ccc(N(C(=O)CCl)C(C(=O)NC2CCCCC2)c2cccs2)cc1 (centres unmarked) [Compound 122, 2-[(2-Chloroacetyl)-(4-cyanophenyl)amino]-N-cyclohexyl-2-thiophen-2-yl-acetamide]	300	4
C#CC(=O)N(c1cccc(C(F)(F)F)c1)C(C(=O)NC1CCCCC1)c1cccc(C#N)c1 (centres unmarked) [Compound 95, Propynoic Acid [(3-cyanophenyl)-cyclohexylcarbamoylmethyl]-(3-trifluoromethylphenyl)amide]	243	1.4
C#CC(=O)N(c1cccc(C(F)(F)F)c1)C(C(=O)Nc1ccccc1OCc1ccccc1)c1cccs1 (centres unmarked) [Compound 112, Propynoic Acid [(2-benzyloxyphenylcarbamoyl)thiophen-2-yl-methyl]-(3-trifluoromethylphenyl)amide]	200	1.8
O=C(NC1CCCCC1)C(c1cccs1)N(C(=O)CCl)c1ccc(O)cc1 (centres unmarked) [Compound 128, 2-[(2-Chloroacetyl)-(4-hydroxyphenyl)amino]-N-cyclohexyl-2-thiophen-2-yl-acetamide]	133	86
O=C(OCc1ccccc1)N1CCN(C(=O)C(c2cccs2)N(C(=O)CCl)c2ccc(Oc3ccccc3)cc2)CC1 (centres unmarked) [Compound 206]	2500	38
COC(=O)CCNC(=O)C(c1cccs1)N(C(=O)CCl)c1cccc(C(F)(F)F)c1 (centres unmarked) [Compound 139, 3-{2-[(2-Chloroacetyl)-(3-trifluoromethylphenyl)amino]-2-thiophen-2-yl-acetylamino}propionic acid methyl ester]	468	63
COc1ccc(CNC(=O)C(C)(C)N(C(=O)CCl)c2ccc(Oc3ccccc3)cc2C)cc1 [Compound 187, 2-[(2-Chloro-acetyl)-(2-methyl-4-phenoxy-phenyl)-amino]-N-(4-methoxy-benzyl)-2-methyl-propionamide]	1130	99
C#CC(=O)N(c1cccc(C(F)(F)F)c1)C(C(=O)NC1CCCCC1)c1ccccc1F (centres unmarked) [Compound 72, Propynoic Acid [cyclo hexylcarbamoyl-(2-fluorophenyl)methyl]-(3-trifluoromethylphenyl)amide]	619	3
C#CC(=O)N(c1cccc(C(F)(F)F)c1)C(C(=O)NC1CCCCC1)c1ccc(Cl)c(Cl)c1 (centres unmarked) [Compound 102, Propynoic Acid [cyclohexylcarbamoyl-(3,4-dichlorophenyl)methyl]-(3-trifluoromethylphenyl)amide]	428	1
C#CC(=O)N(c1ccc(Oc2ccccc2)cc1)C(C(=O)NC1CCCCC1)c1cccs1 (centres unmarked) [Compound 55, Propynoic Acid (cyclohexylcarbamoylthiophen-2-yl-methyl)-(4-phenoxyphenyl)amide]	694	2.4
C#CC(=O)N(c1cccc(C#C)c1)C(C(=O)NC1CCCCC1)c1cccs1 (centres unmarked) [Compound 56, Propynoic Acid (cyclohexylcarbamoylthiophen-2-yl-methyl)-(3-ethynylphenyl)amide]	640	1.4
